# Read-outs that look alike come from different tables or passages of the source.
# How the values were obtained:
# [1] = biological target: Recombinant BRD4 (44-168) protein (Homo sapiens (Human), UniProt O60885); assay: BRD4-H4KAc4 binding assay (amplified luminescence proximity homogeneous assay, AlphaScreen)
# Method: In order to evaluate BRD4 inhibitory activity of the present compounds, BRD4-H4KAc4 binding assay was carried out by an amplified luminescence proximity homogeneous assay. The specific method is described below.
# H4KAc4 peptide (available from Toray Research Center, Inc., sequence SGRGK(Ac)GGK(Ac)GLGK(Ac)GGAK(Ac)RHR-K(Biotin)-NH2) was dissolved in 1×Assay buffer to prepare 1 mM H4KAc4 peptide stock solution.
# N-terminal His tag/C-terminal FLAG tag-fused type Recombinant BRD4 (44-168) protein (available from Active Motif, Cat No. 31380) was diluted with 1×Assay buffer to 1,250-fold to prepare 250 nM BRD4 solution.
# 1% DMSO solution (control) and 2 μL of each compound solution in each concentration were added to each well of AlphaPlate-384 (from PerkinElmer, Cat No. 6008350). Next, 2 μL of 250 nM BRD4 solution was added to each well of AlphaPlate-384. Further, 2 μL of 250 nM H4KAc4 peptide solution was added to each well of AlphaPlate-384. After addition of the 250 nM H4KAc4 peptide solution, the mixture was allowed to stand at room temperature under light shielding for 60 minutes, and 4 μL of AlphaScreen beads were added to each well of AlphaPlate-384. After addition of the AlphaScreen beads, the mixture was allowed to stand at room temperature under light shielding for 60 minutes, emission at 520-620 nm upon excitation at 680 nm was detected by EnVision multilabel counter (from PerkinElmer), and binding of BRD4 and H4KAc4 was detected. Incidentally, the evaluation of each compound was carried out in duplicate (2 well per 1 compound).
# (§1) The BRD4 inhibition rate (%) was calculated by the following equation using Microsoft EXCEL 2010. BRD4 inhibition rate (%)=100−{(luminescence intensity average value of each compound added well)−(average value of luminescence intensity of blank well))/(average value of luminescence intensity of control well)−(average value of luminescence intensity of blank well)}×100
# NF-κB = NF-κB reporter gene assay (TNF-α stimulated A549/NF-κB-luc cells); type: cell-based; details: Homo sapiens, TNF-α stimulation
# Method: In order to evaluate NF-κB inhibitory activity of the present compounds, NF-κB reporter gene assay was carried out. The specific method is described below.
# Gene recombinant human TNF-α (available from R&D systems, Cat No. 210-TA) was dissolved in D-PBS(−) (available from Wako Pure Chemical Industries, Ltd., Cat No. 293-72601) to prepare 100 μg/mL of TNF-α solution stock solution. 100 μg/mL of the TNF-α solution stock solution was diluted with the culture medium to prepare 10 ng/mL of TNF-α solution.
# A549/NF-κB-luc cells (available from Panomics, Cat No. LR0051) were prepared at 375,000 cells/mL in the culture medium. The 375,000 cells/mL A549/NF-κB-luc cell suspension was seeded at 80 μL each on a white 96-well plate (available from Greiner, Cat No. 655073). One hour after seeding the cells, 10 μL of 2% DMSO solution (control) and each compound solution in each concentration were added to each well of the 96-well plate. One hour after the addition of each compound solution, 10 ng/mL of the TNF-α solution (10 μL) was added to each well of the 96-well plate. Three hours after the addition of 10 ng/mL of the TNF-α solution, 100 μL of Steady-Glo reagent (available from Promega, Cat No. E2510) was added to each well of the 96-well plate. After 30 to 90 minutes of the addition of the Steady-Glo reagent, the luminescence intensity of each well was detected by EnVision multilabel counter (available from PerkinElmer).
# as §1, with “NF-κB” for “The BRD4”, “NF-κB” for “BRD4”, “well)}×100 In addition, IC50 values were calculated from the calculated NF-κB inhibition rate (%) using curve fitting software XLfit (available from IDBS).” for “well)}×100”
inhibition at 10 µM ([1]; 10 uM) [%],Compound,further results
100,"COc1ccc(CN2N=C(c3ccc(Cl)cc3)c3c(sc(C)c3C)-n3c(C)nnc32)cc1 [Example 2, 4-(4-chlorophenyl)-6-(4-methoxybenzyl)-2,3,9-trimethyl-6H-thieno[2,3-e][1,2,4]triazolo[3,4-c][1,2,4]triazepine]",
100,"Cc1sc2c(c1C)C(c1ccc(Cl)cc1)=NN(Cc1cccnc1)c1nnc(C)n1-2 [Example 4, 4-(4-chlorophenyl)-2,3,9-trimethyl-6-(pyridin-3-ylmethyl)-6H-thieno[2,3-e][1,2,4]triazolo[3,4-c][1,2,4]triazepine]",
22.3,"Cc1sc2c(c1C)C(c1ccc(Cl)cc1)=NN(C(=O)Nc1ccccc1)c1nnc(C)n1-2 [Example 15, 4-(4-Chlorophenyl)-2,3,9-trimethyl-N-phenyl-6H-thieno[2,3-e][1,2,4]triazolo[3,4-c][1,2,4]triazepine-6-carboxamide]",
69.7,"Cc1sc2c(c1C)C(c1ccc(Cl)cc1)=NN(Cc1ccccc1C(F)(F)F)c1nnc(C)n1-2 [Example 17, 4-(4-chlorophenyl)-2,3,9-trimethyl-6-(2-(trifluoromethyl)benzyl)-6H-thieno[2,3-e][1,2,4]triazolo[3,4-c][1,2,4]triazepine]",
82.2,"Cc1sc2c(c1C)C(c1ccc(Cl)cc1)=NN(CCCc1ccccc1)c1nnc(C)n1-2 [Example 20, 4-(4-chlorophenyl)-2,3,9-trimethyl-6-(3-phenylpropyl)-6H-thieno[2,3-e][1,2,4]triazolo[3,4-c][1,2,4]triazepine]",
101,"COc1ccc(CN2N=C(c3ccccc3)c3c(sc(C)c3C)-n3c(C)nnc32)cc1 [Example 28, 6-(4-methoxybenzyl)-2,3,9-trimethyl-4-phenyl-6H-thieno[2,3-e][1,2,4]triazolo[3,4-c][1,2,4]triazepine]",
100,"Cc1sc2c(c1C)C(c1ccccc1)=NN(Cc1ccncc1)c1nnc(C)n1-2 [Example 32, 2,3,9-trimethyl-4-phenyl-6-(pyridin-4-ylmethyl)-6H-thieno[2,3-e][1,2,4]triazolo[3,4-c][1,2,4]triazepine]",
6.6,"Cc1sc2c(c1C)C(c1ccc(Cl)cc1)=NN(C(=O)NCc1ccccc1)c1nnc(C)n1-2 [Example 35, N-benzyl-4-(4-chlorophenyl)-2,3,9-trimethyl-6H-thieno[2,3-e][1,2,4]triazolo[3,4-c][1,2,4]triazepine-6-carboxamide]",
100,"Cc1sc2c(c1C)C(c1ccc(Cl)cc1)=NN(Cc1ccc(Cl)nc1)c1nnc(C)n1-2 [Example 37, 4-(4-chlorophenyl)-6-((6-chloropyridin-3-yl)methyl)-2,3,9-trimethyl-6H-thieno[2,3-e][1,2,4]triazolo[3,4-c][1,2,4]triazepine]",
100,"Cc1sc2c(c1C)C(c1ccc(Cl)cc1)=NN(Cc1cccnc1C(=O)O)c1nnc(C)n1-2 [Example 84, 3-((4-(4-chlorophenyl)-2,3,9-trimethyl-6H-thieno[2,3-e][1,2,4]triazolo[3,4-c][1,2,4]triazepin-6-yl)methyl)picolinic acid]",
13.3,"CCNC(=O)c1ncccc1CN1N=C(c2ccc(Cl)cc2)c2c(sc(C)c2C)-n2c(C)nnc21 [Example 85, 3-((4-(4-chlorophenyl)-2,3,9-trimethyl-6H-thieno[2,3-e][1,2,4]triazolo[3,4-c][1,2,4]triazepin-6-yl)methyl)-N-ethylpicolinamide]",

# Further lines, the molecule ahead of its results:
Compound,inhibition at 10 µM ([1]; 10 uM) [%],further results
"Cc1sc2c(c1C)C(c1ccc(Cl)cc1)=NNc1nnc(C)n1-2 [Example 1, 4-(4-chlorophenyl)-2,3,9-trimethyl-6H-thieno[2,3-e][1,2,4]triazolo[3,4-c][1,2,4]triazepine]",99.9,
"Cc1sc2c(c1C)C(c1ccccc1)=NN(Cc1cccnc1)c1nnc(C)n1-2 [Example 30, 2,3,9-trimethyl-4-phenyl-6-(pyridin-3-ylmethyl)-6H-thieno[2,3-e]-[1,2,4]triazolo[3,4-c][1,2,4]triazepine]",101,
"COc1cccnc1CN1N=C(c2ccc(Cl)cc2)c2c(sc(C)c2C)-n2c(C)nnc21 [Example 54, 4-(4-chlorophenyl)-6-((3-methoxypyridin-2-yl)methyl)-2,3,9-trimethyl-6H-thieno[2,3-e][1,2,4]triazolo[3,4-c][1,2,4]triazepine]",99.9,
"Cc1nnc2n1-c1sccc1C(c1ccc(Cl)cc1)=NN2 [Example 59, 4-(4-chlorophenyl)-9-methyl-6H-thieno[2,3-e][1,2,4]triazolo[3,4-c][1,2,4]triazepine]",,inhibition at 10 µM [1]: 100%
"Cc1nnc2n1-c1sccc1C(c1ccc(Cl)cc1)=NN2Cc1ccccn1 [Example 62, 4-(4-chlorophenyl)-9-methyl-6-(pyridin-2-ylmethyl)-6H-thieno[2,3-e][1,2,4]triazolo[3,4-c][1,2,4]triazepine]",100,
"COc1ccc(CN2N=C(c3ccc(Cl)cc3)c3c(C)csc3-n3c(C)nnc32)cc1 [Example 66, 4-(4-chlorophenyl)-6-(4-methoxybenzyl)-3,9-dimethyl-6H-thieno[2,3-e][1,2,4]triazolo[3,4-c][1,2,4]triazepine]",100,
"COc1ccc(CN2N=C(c3ccc(Cl)cc3)c3cccnc3-n3c(C)nnc32)cc1 [Example 67, 5-(4-chlorophenyl)-7-(4-methoxybenzyl)-10-methyl-7H-pyrido[2,3-e][1,2,4]triazolo[3,4-c][1,2,4]triazepine]",100,
"COc1ccc(CN2N=C(c3ccc(Cl)cc3)c3c(sc(C)c3C)-n3c(CO)nnc32)cc1 [Example 68, (4-(4-chlorophenyl)-6-(4-methoxybenzyl)-2,3-dimethyl-6H-thieno[2,3-e][1,2,4]triazolo[3,4-c][1,2,4]triazepin-9-yl)methanol]",19.2,
"COc1ccc(CN2N=C(c3ccc(Cl)cc3)c3c(sc(C)c3C)-n3c2nnc3C(F)(F)F)cc1 [Example 69, 4-(4-chlorophenyl)-6-(4-methoxybenzyl)-2,3-dimethyl-9-(trifluoromethyl)-6H-thieno[2,3-e][1,2,4]triazolo[3,4-c][1,2,4]triazepine]",52,
"Cc1sc2c(c1C)C(c1ccccc1Cl)=NN(Cc1cccnc1)c1nnc(C)n1-2 [Example 72, 4-(2-chlorophenyl)-2,3,9-trimethyl-6-(pyridin-3-ylmethyl)-6H-thieno[2,3-e][1,2,4]triazolo[3,4-c][1,2,4]triazepine]",100,
"COc1ccc(C2=NN(Cc3cccnc3)c3nnc(C)n3-c3sc(C)c(C)c32)cc1 [Example 76, 4-(4-methoxyphenyl)-2,3,9-trimethyl-6-(pyridin-3-ylmethyl)-6H-thieno[2,3-e][1,2,4]triazolo[3,4-c][1,2,4]triazepine]",100,
"Cc1sc2c(c1C)C(c1ccc(Cl)cc1)=NN(C(=O)Nc1ccccc1)c1nnc(C)n1-2 [Example 91, 4-(4-chlorophenyl)-2,3,9-trimethyl-N-phenyl-6H-thieno[2,3-e][1,2,4]triazolo[3,4-c][1,2,4]triazepine-6-carboxamide]",,BRD4-H4KAc4 binding % of inhibition@10 uM ([1]; 10 uM): 22.4%
"CC(=O)Nc1ccc(C2=NN(Cc3cncc(O)c3)c3nnc(C)n3-c3sc(C)c(C)c32)cc1 [Example 99, N-(4-(6-((5-hydroxypyridin-3-yl)methyl)-2,3,9-trimethyl-6H-thieno[2,3-e][1,2,4]triazolo[3,4-c][1,2,4]triazepin-4-yl)phenyl)acetamide]",,IC50 (NF-κB): 1640 nM

# Reference: patent US11186588B2 (AYUMI PHARMACEUTICAL CORPORATION, priority 2017, dated 2021)
